Molecules are shown by their SMILES. Where “and” joins values, the source holds several entries; their conditions need not be identical. Equal values may be shown once. Inconclusive results and toxic doses are left out.

This note sets out measurements from PubChem BioAssay AID248 (DTP/NCI, 2004).

This assay has as its system L1210 leukemia ip in BDF1 mice, survival T/C. The experiment in a line: NCI In Vivo Anticancer Drug Screen. Data for tumor model L1210 Leukemia (intraperitoneal) in B6D2F1 (BDF1) mice. The following applies: endpoint: mean survival time, higher = longer survival. Put shortly:
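In this screen, tumor-bearing mice given compound are compared to those given vehicle, and their survival values are reported as a treated-to-control quotient.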

[1] abbreviates: dose: 100.0 mg/kg/injection, schedule: Q01DX001 (ip), vehicle: other.
Where [2] appears, read: dose: 100.0 mg/kg/injection, schedule: Q01DX001 (ip), vehicle: carboxymethylcellulose (CMC).
Setting [3] is: dose: 200.0 mg/kg/injection, schedule: Q01DX001 (ip), vehicle: carboxymethylcellulose (CMC).
Setting [4] is: dose: 400.0 mg/kg/injection, schedule: Q01DX001 (ip), vehicle: carboxymethylcellulose (CMC).
The mark [5] stands for this setting: dose: 100.0 mg/kg/injection, schedule: Q04DX003 (ip), vehicle: carboxymethylcellulose (CMC).
Setting [6] is: dose: 200.0 mg/kg/injection, schedule: Q04DX003 (ip), vehicle: carboxymethylcellulose (CMC).
Where [7] appears, read: dose: 400.0 mg/kg/injection, schedule: Q04DX003 (ip), vehicle: carboxymethylcellulose (CMC).

With `CCOC(=O)Nc1cc(NC(c2ccccc2)c2ccccc2)c2[nH]cnc2n1`, the T/C is, setting by setting: (dose: 4.0 mg/kg/injection, schedule: Q01DX009 (ip), vehicle: other) 92 % of control; (dose: 5.0 mg/kg/injection, schedule: Q01DX001 (ip), vehicle: other) 104 % of control; (dose: 7.0 mg/kg/injection, schedule: Q01DX009 (ip), vehicle: other) 93 % of control; (dose: 9.0 mg/kg/injection, schedule: Q01DX009 (ip), vehicle: other) 95 % of control; (dose: 9.0 mg/kg/injection, schedule: Q01DX009 (ip), vehicle: steriod suspending solution) 97 % of control; (dose: 10.0 mg/kg/injection, schedule: Q01DX001 (ip), vehicle: other) 102 % of control. Besides, the T/C was 92 % of control (dose: 12.0 mg/kg/injection, schedule: Q01DX009 (ip), vehicle: other); 95 % of control (dose: 13.0 mg/kg/injection, schedule: Q01DX009 (ip), vehicle: other); 97 % of control (dose: 13.0 mg/kg/injection, schedule: Q01DX009 (ip), vehicle: steriod suspending solution); 98 % of control (dose: 18.0 mg/kg/injection, schedule: Q01DX001 (ip), vehicle: steriod suspending solution); 100 % of control and 106 % of control (dose: 20.0 mg/kg/injection, schedule: Q01DX001 (ip), vehicle: other); 95 % of control and 112 % of control (dose: 20.0 mg/kg/injection, schedule: Q01DX009 (ip), vehicle: other). Besides, the T/C was 103 % of control (dose: 20.0 mg/kg/injection, schedule: Q01DX009 (ip), vehicle: steriod suspending solution); 100 % of control (dose: 26.0 mg/kg/injection, schedule: Q01DX001 (ip), vehicle: steriod suspending solution); 119 % of control (dose: 30.0 mg/kg/injection, schedule: Q01DX001 (ip), vehicle: other); 105 % of control (dose: 30.0 mg/kg/injection, schedule: Q01DX009 (ip), vehicle: other); 124 % of control (dose: 30.0 mg/kg/injection, schedule: Q01DX009 (ip), vehicle: steriod suspending solution); 164 % of control (dose: 40.0 mg/kg/injection, schedule: Q01DX001 (ip), vehicle: other). Besides, the T/C (dose: 40.0 mg/kg/injection, schedule: Q01DX001 (ip), vehicle: steriod suspending solution) is 105 % of control; the T/C (dose: 50.0 mg/kg/injection, schedule: Q01DX001 (ip), vehicle: other) is 155 % of control; the T/C (dose: 60.0 mg/kg/injection, schedule: Q01DX001 (ip), vehicle: other) is 119 % of control; the T/C (dose: 60.0 mg/kg/injection, schedule: Q01DX001 (ip), vehicle: steriod suspending solution) is 111 % of control; the T/C (dose: 80.0 mg/kg/injection, schedule: Q01DX001 (ip), vehicle: other) was 107 % of control; the T/C under setting [1] was 107 % of control.
For `CC(=O)O[C@H]1CC[C@H]2[C@@H]3CC[C@H]4CC=C(C#N)C[C@]4(C)[C@H]3CC[C@]12C`, the T/C is, setting by setting: (dose: 50.0 mg/kg/injection, schedule: Q01DX001 (sc), vehicle: steriod suspending solution) 107 % of control; (dose: 100.0 mg/kg/injection, schedule: Q01DX001 (sc), vehicle: steriod suspending solution) 104 % of control; (dose: 200.0 mg/kg/injection, schedule: Q01DX001 (sc), vehicle: steriod suspending solution) 102 % of control; (dose: 400.0 mg/kg/injection, schedule: Q01DX001 (sc), vehicle: steriod suspending solution) 101 % of control.
With `O=c1[nH]cc(/C=N/O)c(=O)[nH]1`, the T/C is 106 % of control under setting [2], 106 % of control under setting [3] and 101 % of control under setting [4].
`COc1cc(Cl)ccc1NC(=O)C(O)C(O)C(O)C(O)CO` (stereo not given): the T/C was 97 % of control under setting [1]; 100 % of control and 103 % of control (dose: 100.0 mg/kg/injection, schedule: Q01DX009 (ip), vehicle: other); 98 % of control and 103 % of control (dose: 100.0 mg/kg/injection, schedule: Q04DX002 (ip), vehicle: other); 103 % of control under setting [5]; 90 % of control (dose: 200.0 mg/kg/injection, schedule: Q01DX001 (ip), vehicle: other); 94 % of control and 97 % of control (dose: 200.0 mg/kg/injection, schedule: Q01DX009 (ip), vehicle: other). The T/C reads like this: (dose: 200.0 mg/kg/injection, schedule: Q04DX002 (ip), vehicle: other) 98 % of control and 92 % of control; under setting [6], 100 % of control; (dose: 400.0 mg/kg/injection, schedule: Q01DX001 (ip), vehicle: other) 101 % of control; (dose: 400.0 mg/kg/injection, schedule: Q01DX009 (ip), vehicle: other) 95 % of control and 97 % of control; (dose: 400.0 mg/kg/injection, schedule: Q04DX002 (ip), vehicle: other) 103 % of control and 113 % of control; under setting [7], 103 % of control.
For `N#CCCC(CCC#N)c1cccc(C(CCC#N)CCC#N)n1`, the T/C (dose: 12.5 mg/kg/injection, schedule: Q04DX003 (ip), vehicle: Klucel (hydroxypropylcellulose) (HPC)) was 96 % of control; the T/C (dose: 25.0 mg/kg/injection, schedule: Q04DX003 (ip), vehicle: Klucel (hydroxypropylcellulose) (HPC)) is 95 % of control; the T/C (dose: 50.0 mg/kg/injection, schedule: Q04DX003 (ip), vehicle: Klucel (hydroxypropylcellulose) (HPC)) is 90 % of control; the T/C (dose: 100.0 mg/kg/injection, schedule: Q04DX003 (ip), vehicle: Klucel (hydroxypropylcellulose) (HPC)) is 96 % of control.
As to `CN1CCN(c2ncnc3c2ncn3C2OC(CO)C(O)C2O)CC1` (stereo not given), the T/C runs as follows: (dose: 100.0 mg/kg/injection, schedule: Q01DX005 (ip), vehicle: water) 95 % of control; (dose: 200.0 mg/kg/injection, schedule: Q01DX005 (ip), vehicle: water) 90 % of control; (dose: 400.0 mg/kg/injection, schedule: Q01DX005 (ip), vehicle: water) 93 % of control.
On to `CCC[n+]1c(C)oc2ccc(-c3ccccc3)cc21`, for which the T/C is 97 % of control (dose: 50.0 mg/kg/injection, schedule: Q01DX009 (ip), vehicle: saline with Tween-80); 94 % of control (dose: 100.0 mg/kg/injection, schedule: Q01DX001 (ip), vehicle: saline with Tween-80); 101 % of control (dose: 100.0 mg/kg/injection, schedule: Q01DX009 (ip), vehicle: saline with Tween-80); 99 % of control (dose: 200.0 mg/kg/injection, schedule: Q01DX001 (ip), vehicle: saline with Tween-80); 90 % of control (dose: 400.0 mg/kg/injection, schedule: Q01DX001 (ip), vehicle: saline with Tween-80).
Take `Nc1ncc(C=O)c(N)n1`: the T/C is 113 % of control (dose: 6.25 mg/kg/injection, schedule: Q01DX009 (ip), vehicle: Klucel (hydroxypropylcellulose) (HPC)) and 100 % of control (dose: 12.5 mg/kg/injection, schedule: Q01DX009 (ip), vehicle: Klucel (hydroxypropylcellulose) (HPC)).
Take `CCC12CC(Br)C(C1)OC2=O` (stereo not given): the T/C reads like this: (dose: 100.0 mg/kg/injection, schedule: Q04DX003 (ip), vehicle: other) 100 % of control; (dose: 200.0 mg/kg/injection, schedule: Q04DX003 (ip), vehicle: other) 95 % of control; (dose: 400.0 mg/kg/injection, schedule: Q04DX003 (ip), vehicle: other) 94 % of control.
As to `CC(=O)N(C)c1ccc(NC(=O)Nc2ccc(F)cc2)cc1`, the T/C by setting is: under setting [2], 97 % of control; (dose: 100.0 mg/kg/injection, schedule: Q01DX009 (ip), vehicle: carboxymethylcellulose (CMC)) 95 % of control and 103 % of control; (dose: 100.0 mg/kg/injection, schedule: Q04DX002 (ip), vehicle: carboxymethylcellulose (CMC)) 95 % of control and 97 % of control and 90 % of control; under setting [5], 104 % of control; under setting [3], 96 % of control; (dose: 200.0 mg/kg/injection, schedule: Q01DX009 (ip), vehicle: carboxymethylcellulose (CMC)) 101 % of control and 103 % of control. Further, the T/C runs as follows: (dose: 200.0 mg/kg/injection, schedule: Q04DX002 (ip), vehicle: carboxymethylcellulose (CMC)) 93 % of control and 96 % of control and 87 % of control; under setting [6], 107 % of control; under setting [4], 106 % of control; (dose: 400.0 mg/kg/injection, schedule: Q01DX009 (ip), vehicle: carboxymethylcellulose (CMC)) 95 % of control and 101 % of control; (dose: 400.0 mg/kg/injection, schedule: Q04DX002 (ip), vehicle: carboxymethylcellulose (CMC)) 97 % of control and 98 % of control and 104 % of control; under setting [7], 98 % of control.
Consider `CC(=O)OCC1OC(n2cc(C)c(=O)[nH]c2=O)CC1OC(C)=O` (stereo not given), for which the T/C runs as follows: (dose: 684.0 mg/kg/injection, schedule: Q02DX010 (ip), vehicle: other) 99 % of control; (dose: 1368.0 mg/kg/injection, schedule: Q02DX010 (ip), vehicle: other) 105 % of control; (dose: 2052.0 mg/kg/injection, schedule: Q02DX010 (ip), vehicle: other) 96 % of control.
